Test results taken from US8466311B2, “Neuroprotective compositions and methods” (Sanford-Burnham Medical Research Institute, priority 2006, dated 2013).

Columns and labels:
[1] = tested on: phase 2 genes (GCL-L, GCL-H, HO-1, NQO1); assay: Phase 2 gene induction in PC12h cells (RT-PCR); type: cell-based; conditions: 10 μM CA, 6-24 h
Description: RT-PCR. In order to examine phase 2 gene induction by CA in PC12h cells and brain lysates, RT-PCR of total RNA from cortical cultures was performed using the following primer pairs (Hosoya et al., J. Bioi. Chern. 29:27244-27250, 2005; Kobayashi et al., Mol. Cell. Biol. 26:221-229, 2006): CypA (89 bp), 5′-ACAGGTCCTGGCATCTTGTC-3′ (SEQ ID NO: 18)(sense) and 5′-[…] -3′ (SEQ ID NO: 19)(antisense); H0-1 (284 bp), 5′-CAGTCGCCTCCAGAGTTTCC -3′ (SEQ ID NO: 20)(sense) and 5′- TACAAGGAGGCCATCACCAGC-3′ (SEQ ID NO: 21)(antisense); GCL-M (280 bp), 5′- CTGCTAAACTGTTCATTGTAGG-3′ (SEQ ID NO: 22)(sense) and 5′- CTA TTG GGT TIT ACC TGT G-3′ (SEQ ID NO: 23)(antisense); GCL-C (213 bp), 5′- GTC TIC AGG TGA ACA TIC CAA GC-3′ (SEQ ID NO: 24)(sense) and 5′- TGTTCTTCAGGGGCTCCAGTC-3′ (SEQ 10 NO: 25)(antisense); and NQO1 (212 bp), 5′- GTG TAC AGC ATI GGC CAC AC-3′ (SEQ 10 NO: 26)(sense) and 5′AAATGATGGCCCACAGAAAG-3′ (SEQ ID NO: 27)(antisense).
Phase 2 enzymes represent an important effector activated by electrophilic-induction of the Keap1/Nrf2 pathway. In order to detect induction of the phase 2 enzymes γ-GCL light chain (GCL-L), γ-GCL heavy chain (GCL-H), HO-1, and NQO1, we performed RT-PCR using mRNA of PC12h cells pretreated with 10 μM CA. The cyclophilin A (CYPA) gene was used as an internal positive control.

[2] = tested on: ARE; assay: ARE(GSTYa)-luciferase reporter in PC12h cells; type: cell-based
Description: (1) pGL3-GSTYa ARE core-luciferase vector. […] The dsDNA thus obtained was inserted into the Mlu l and Bglll sites of the pGL3-promoter vector (Promega Co., Madison, Wis.).
Transient transfection and measurement of luciferase activity. PC12h cells or cerebrocortical cultures (E17, DIV21) were incubated for 5 h in EBSS containing 1 μg of a plasmid DNA plus Lipofectamine 2000 (Invitrogen, Carlsbad, Calif.). Transfection efficiency was normalized to β-galactosidase activity expressed by co-transfection with pSV-β-gal (Promega). For reporter gene assays, cells were transfected with 1 μg of the reporter construct [ARE(GSTYa)-luciferase] and 0.2 μg pSV-β-gal for 1 hour. […] Firefly luciferase activity and β-galactosidase activity in cell lysates were measured using a Luciferase System and β-Galactosidase Enzyme Assay System, respectively (Promega, Madison, Wis.).
Next, we examined the involvement of the Keap1/Nrf2 pathway more precisely by studying activation of the ARE. This transcription element responds to the Keap1/Nrf2 pathway; we monitored activation of the ARE by performing luciferase reporter gene assays using PC12h cells transfected with ARE(GSTYa)-luciferase (Alam et al., J. Biol. Chem. 274:26071-26077, 1999) in the presence or absence of an Nrf2 dominant-negative (DN) or Keap1 expression vector.

[3] = tested on: PC12h cells; assay: Oxidative glutamate toxicity in PC12h cells (MTT assay); type: cell-based
Description: PC12h cells, PC12hW1B cells, and PC12hD5D cells (expressing Nrf2DN) were incubated with various concentrations of glutamate for 20 h. […] Various concentrations of CA were added to PC12, PC or PC12hD5D cells 1 h prior to exposure to 5 mM glutamate for 20 h.
PC12h and COST cell cultures.
Thus, we examined whether CA could protect PC12h cells from such insults. We prepared naïve PC12h cells, Nrf2WT-expressing PC12h cells (PC12hW1B), and Nrf2DN-expressing PC12h cells (PC12hD5D). In order to examine the effects of the Keap1/Nrf2 pathway on cell survival in the face of oxidative stress, we exposed the cells to a high concentration of glutamate. […] To visualize surviving and dead cells, we stained cultures with fluorescein diacetate (FDA) and propidium iodide (PI), respectively. Additionally, cell survival was quantified by the 3-(4,5-dimethylthiazol-2-yl)-2,5-diphenyl tetrazolium bromide (MTT) assay (FIG. 4A).
We next tested the hypothesis that CA-induced neuroprotection is mediated by the Keap1/NRf2 pathway.

[4] = tested on: immature cortical neurons; assay: Oxidative stress (glutamate or rotenone) in immature cortical cultures; type: cell-based, rat; conditions: CA 3 μM
From the text: Primary cortical cultures and assays for two types of glutamate toxicity. Cerebrocortical neurons have been used as an in vitro system in order to investigate the cellular mechanism of neuronal death caused by glutamate. The level of expression of functional NMDA receptors is key for determining whether excitotoxicity or oxidative glutamate toxicity predominates. With increasing days in vitro (DIV), the expression level of these receptors in cortical cultures increases. […] In light of this background information, in the present study, we prepared cerebrocortical cultures from embryonic day 17 (E17) Sprague-Dawley rats and examined them at DIV2 as an experimental system for oxidative glutamate toxicity (Murphy et al., FASEB J. 4:1624-1633, 1990; Lee et al., J. Biol. Chem. 278:37948-37956, 2003). Rotenone, a complex I inhibitor of the mitochondrial electron-transport chain, also induces oxidative stress in immature cortical cultures (Murphy et al., FASEB J. 4:1624-1633, 1990; Lee et al., J. Biol. Chem. 278:37948-37956, 2003).
CA protects cortical neurons via activation of the Keap1/Nrf2 pathway. […] Glutamate (2 mM) and rotenone (300 nM) decreased the number of MAP2 and NeuN-positive cells to 30.8±2.5% and 25.8±1.9% of the control value, respectively. In contrast, CA (3 μM) increased cell survival in the face of these insults to 73.8±3.7% and 80.4±3.4%, respectively.

[5] = tested on: HO-1 protein; assay: Induction of HO-1 protein in HT22 cells (Western blot); type: cell-based; conditions: 24 h, at NEPP concentration that prevented neuronal cell death
Description: HT22 cells (Satoh et al., Eur. J. Neurosci. 17:2249-2255, 2003; Satoh et al., J. Neurochem. 77:50-62, 2001; Sagara et al., J. Biol. Chem. 277:36204-36215, 2002) and primary cortical neurons (Bonfoco et al., Proc. Natl. Acad. Sci. USA 92:7162-7166, 1995) were cultured as described.
These assays were performed as described (Gu et al., Science 297:1186-1190, 2002) by using the following antibodies: anti-HO-1 (SPA895, 1:1000, Santa Cruz Biotechnology), anti-Keap1 (1:100, Santa Cruz Biotechnology), or anti-actin (1:5,000, Oncogene Research Products, San Diego).
Thereafter, cell lysates (10 μg per lane) were subjected to SDS-PAGE and probed with anti-HO-1 or anti-β-actin.

[6] = tested on: Nrf2-GFP fusion protein; assay: Localization of Nrf2-GFP fusion protein in transfected HT22 cells; type: cell-based; conditions: NEPP11 2 μM, 24 h
Description: Activation of the Keap1/Nrf2 pathway by NEPP compounds in a neuronal cell line. Next, we examined the localization of an Nrf2-Green Fluorescent Protein (GFP) fusion protein (Numazawa et al., Am. J. Physiol. 285:C334-C342, 2003) in transfected HT22 cells. HT22 cells transfected with pNrf2-GFP were treated with vehicle or NEPP11 (2 μM) for 24 h and observed under epifluorescence microscopy. […] Thus we hypothesized that nuclear levels of Nrf2 protein should increase when cells are exposed to an electrophile such as NEPP, which promotes nuclear translocation. To test this hypothesis, cytosolic and nuclear fractions (200 μg protein) from cells that had been treated with vehicle or 2 μM NEPP11 for 24 h were precipitated and probed with anti-Nrf2 antibody and with anti-NeuN, a neuronal-specific nuclear protein. Indeed, we confirmed this hypothesis.

CC(C)c1cc2c(c(O)c1O)[C@@]1(C(=O)O)CCCC(C)(C)[C@@H]1CC2 [CA, carnosic acid]
induction of phase 2 genes [1]: All of the phase 2 genes were induced | ARE activation with co-transfection of Nrf2-DN or Keap1 ([2]; PC12h cells, CA): significantly repressed | stimulation of ARE-based transcription ([2]; PC12h cells, CA 10 μM): > 10 fold | ARE activation relative to sulforaphane ([2]; equimolar basis, 20 h): to a much greater extent than sulforaphane | protective effects in PC12hD5D cells (Nrf2DN) ([3]; CA): significantly suppressed | concentrations protecting PC12h cells against oxidative glutamate toxicity ([3]; dose-dependent, 5 mM glutamate 20 h, CA 1 h prior): 0.1 to 1 µM | cell survival (MAP2 and NeuN-positive cells), % of the control value ([4]; glutamate 2 mM, glutamate alone 30.8±2.5%): 73.8±3.7% | cell survival (MAP2 and NeuN-positive cells), % of the control value ([4]; rotenone 300 nM, rotenone alone 25.8±1.9%): 80.4±3.4%

COC(=O)CCCCC/C=C1/C(=O)C=C[C@H]1CCCCCCc1ccc(C)cc1 [NEPP11]
HO-1 protein levels over baseline [5]: approximately five-fold | localization of Nrf2-GFP [6]: translocated into the nucleus
